Measured values: patent US20240018125A1, “CYCLIC ISOTHIOUREA DERIVATIVES AS CXCR4 MODULATORS” (ERMIUM THERAPEUTICS, priority 2020, published 2024)
Where a name gives a salt, the structure may show the parent alone.

How the values were obtained:
[1] = system: Female Balb/c mice, pristane-induced lupus; assay: In vivo pristane-induced lupus mouse model, anti-dsDNA antibody titers in serum by ELISA
Procedure: Female Balb/c mice (6 to 8 weeks, ENVIGO, Indianapolis, USA) received a single i.p. injection with 0.5 mL of pristane (Sigma-Aldrich, St Louis, USA) to induce a lupus-like disease. That same day, once daily treatment was started (10 mL/kg), either with vehicle control (PBS) i.p., with prednisolone (Sigma-Aldrich, St Louis, USA) in PBS p.o. at a dose of 15 mg/kg (positive control), or with an exemplary compound of formula (I), i.e. Example 60, at a dose of either 3 mg/kg, 10 mg/kg or 30 mg/kg in PBS i.p. After 4, 6 and 8 weeks of dosing, sample bleeds for each mouse were collected via the orbital sinus, and immediately cold processed to sera and stored (50 μl) at −80° C. until analysis. In serum, anti-dsDNA antibody titers are determined using ELISA. Optical density was measured at 450 nm (OD450) using a microplate reader. Data are reported as anti-dsDNA Ab titers (OD), mean±S.E.M. as well as the statistical significance versus pristane-induced vehicle treated group using t-tests.

Male C57BL/6 Rj mice = assay: In vivo evaluation of CXCR4 antagonistic activity by mobilisation of blood cells; design: species or system mouse; conditions: 30 mg/kg single i.p., 2:30 h after injection; shown also for neutrophils, monocytes, lymphocytes, eosinophils
Procedure: Male C57BL/6 Rj mice (7 weeks old) were obtained from Janvier (Le Genest-Saint-Isle, France). Mice were treated by a single intraperitoneal (i.p.) administration at timepoint 0 h. The experimental groups (n=10) were defined as follows: • Mice of group 1 were treated with vehicle only (0.9% NaCl aqueous solution) • Mice of group 2 were treated with AMD3100 (CXCR4 antagonist, Sigma-Aldrich, St Louis, USA) at 20 mg/kg (volume of 10 mL/kg) in 0.9% NaCl aqueous solution • Mice of group 3 were treated with an exemplary compound of formula (I), i.e. Example 60, at 30 mg/kg (volume of 10 mL/kg) in 0.9% NaCl aqueous solution
After 2:30 h, whole blood (at least 200 μl, max 1 mL) was collected in EDTA tubes before sacrifice by an intracardiac puncture under isoflurane anaesthesia and haematology parameters were determined the same day by laser flow cytometry, optical fluorescence and Laminar Flow Impedance™ using the ProCyte Dx hematology analyser (IDEXX, Eau Claire, USA). Differential leukocyte counts were performed to quantify specific immune cell types. Data are reported as total number of cells (K/μL), mean±S.E.M., as well as the statistical significance versus the vehicle control group using unpaired t-tests.

[2] = system: irrelevant G-protein coupled receptor (GPCR); assay: G.Validation fluorescence assay on irrelevant GPCR control; format: biochemical; conditions: SDF1α 15 μM, AMD3100 100 μM, Example 60 150 μM; SB3L1
[3] = system: 129S8 mice infected with influenza A virus H3 N2 (X31); assay: In vivo immunomodulating effect (type 1 IFNs in BALF) in acute influenza inflammation model; design: species or system mouse; conditions: […]; even lower than after ibuprofen
[4] = molecular target: T1, human CXCR4 (hCXCR4) receptor (Homo sapiens, UniProt P61073); assay: BRET assay of antagonist activity on the CXCR4-CXCL12 signaling pathway (Gαi2 recruitment) in HEK-293 T cells; format: cell-based; conditions: HEK-293 T cells with hCXCR4, Gαi2 and BRET biosensors; 10 min with compound, then EC80 CXCL12
T1 construct: expressed in transfected cells; host or cells: HEK-293 T cells, transient co-transfection with polyethylenimine
Procedure: Examples of the present invention were tested for their antagonist activity on human CXCR4 (hCXCR4) receptor transiently over-expressed in HEK-293 T cells. Compounds exert antagonist activity if they decrease the action of CXCL12 on the receptor.
The specific effector (luciferase tagged: BRET donor) recruited at the membrane will be in close proximity to a plasma membrane anchor (GFP tagged: BRET acceptor) to induce a BRET signal (Hamdan et a1, 2006, Chapter 5, Current Protocols in Neuroscience).
HEK-293 T cells are maintained in Dulbecco's Modified Eagle's Medium supplemented with 10% Foetal Calf Serum, 1% Penicillin/Streptomycin at 37° C./5% CO2. Cells are co-transfected using polyethylenimine (25 kDa linear) with several DNA plasmids encoding: hCXCR4; Gai2; an intracellular effector fused to luciferase (BRET donor); a plasma membrane effector fused to GFP (BRET acceptor). After transfection, cells are cultured for 48 h at 37° C./5% CO2. On the day of the assay, cells are detached using trypsin 0.05%, resuspended in assay buffer (1.8 mM CaCl2, 1 mM MgCl2, 2.7 mM KCl, 137 mM NaCl, 0.4 mM NaH2PO4, 5.5 mM D-Glucose, 11.9 mM NaHCO3, 25 mM Hepes) and seeded in 384 well plate at a density of 20,000 cells per well. Then, plates are equilibrated 3.5 h at 37° C. before adding compounds. Compounds and luciferase substrate are added to the cells using an automated device (Freedom Evo®, Tecan) and BRET readings are collected on EnVision (PerkinElmer) with specific filters (410 nm BW 80 nm, 515 nm BW 30 nm).
Cells are first incubated for 10 minutes with the compound alone. Then, cells are stimulated by an EC80 CXCL12 concentration for additional 10 minutes and luminescence is recorded. EC80 CXCL12 concentration is the concentration giving 80% of the maximal CXCL12 response. Antagonist activity is evaluated in comparison to basal signals evoked by EC80 CXCL12 alone.
For IC50 determination, a dose-response test is performed using 20 concentrations (ranging over 6 logs) of each compound. Dose-response curves are fitted using the sigmoidal dose-response (variable slope) analysis in GraphPad Prism software (GraphPad Software) and IC50 of antagonist activity is calculated. Dose-response experiments are performed in duplicate, in two independent experiments.
HEK-293 T cells were transfected to allow measuring the recruitment of Gai2 proteins involved in intracellular signaling by human CXCR4 receptor (hCXCR4) via the BRET technology. Cells were then incubated with various concentrations of examples of the invention before stimulation with an EC80 concentration of CXCL12.

T1 sequence (P61073 whole entry): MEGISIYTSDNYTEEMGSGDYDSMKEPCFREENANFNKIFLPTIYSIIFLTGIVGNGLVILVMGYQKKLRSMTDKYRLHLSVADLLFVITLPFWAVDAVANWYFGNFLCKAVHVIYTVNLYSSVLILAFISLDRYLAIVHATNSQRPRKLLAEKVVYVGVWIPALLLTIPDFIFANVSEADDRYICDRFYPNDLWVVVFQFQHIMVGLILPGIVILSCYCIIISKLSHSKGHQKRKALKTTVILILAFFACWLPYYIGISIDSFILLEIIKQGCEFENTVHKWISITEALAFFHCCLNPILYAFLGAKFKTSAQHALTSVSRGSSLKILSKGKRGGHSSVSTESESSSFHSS

With `Clc1ccc2c(c1)CN=C(SCCCCN1CCCC1)N2` [Example 60, 6-chloro-2-((4-(pyrrolidin-1-yl)butyl)thio)-1,4-dihydroquinazoline dihydrochloride] the “anti-dsDNA Ab titers in serum vs vehicle-treated pristane-induced mice” value ([1]; 3 mg/kg i.p. once daily, week 4) was “reduced”, the “anti-dsDNA Ab titers in serum vs vehicle-treated pristane-induced mice” value ([1]; 10 mg/kg i.p. once daily, week 4) was “reduced” and the “anti-dsDNA Ab titers in serum vs vehicle-treated pristane-induced mice” value ([1]; 10 mg/kg i.p. once daily, week 8, same range as prednisolone) was “significantly decreased”. For the same molecule, the “anti-dsDNA Ab titers in serum vs vehicle-treated pristane-induced mice” value ([1]; 30 mg/kg i.p. once daily, week 4) was “reduced”, the “anti-dsDNA Ab titers in serum vs vehicle-treated pristane-induced mice” value ([1]; 30 mg/kg i.p. once daily, week 6) was “significantly lower” and the “anti-dsDNA Ab titers in serum vs vehicle-treated pristane-induced mice” value ([1]; 30 mg/kg i.p. once daily, week 8, same range as prednisolone) was “significantly decreased”. The “numbers of white blood cells in the blood vs vehicle control” value (Male C57BL/6 Rj mice) was “not increased”, the “irrelevant GPCR activation state, Amax shift in fluorescence” value [2] was “Neither benchmark ligands SDF1α and AMD3100, nor Example 60 showed any effect” and the “concentration of IFNα in BALF vs vehicle-treated infected mice” value [3] was “significantly decreased”. For the same molecule, the “concentration of IFNβ in BALF vs vehicle-treated infected mice” value [3] was “significantly decreased”, the “concentration of IFNλ2/3 in BALF vs vehicle-treated infected mice” value [3] was “significantly decreased” and the IC50 [4] was ≥ 15 µM.
